Experimental data: US20250368628A1, “METHODS AND COMPOUNDS FOR MODULATING INHERITED GENETIC DISEASES” (Design Therapeutics, Inc., priority 2022, published 2025)
pEC50: −log10 of the molar value. Where two headings read alike, the source gives them in different places.

Experiments:
[1] = system: Myotonic Dystrophy 1 affected patient fibroblasts (Coriel GM04602; 1600 CTG repeats); experiment: DM1 foci reduction assay (EC50 assay; CAG10-Cy3 FISH, foci per nucleus); format: cell-based
How it was run: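 GM04602 DM1 patient fibroblasts (1600 CTG repeats) seeded 24 h, then treated 48 h at 37 °C with an 8-point 1:3 dose series from 3 μM. Cells PFA-fixed, ethanol-permeabilized and hybridized overnight with 5 nM CAG10-Cy3 probe, DAPI counterstained. Imaged at 20×, 4 fields per well, as average foci per nucleus.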

F35T cells = experiment: Foci reduction in FECD (CAG10-Cy3 FISH, foci per nucleus); format: cell-based
How it was run: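 F35T cells, 5000 per well, were treated for 48 h at 37 °C, 5% CO2 in an 8-point dose response. Cells were then fixed in 4% PFA, permeabilized in 70% ethanol and hybridized overnight at 37 °C with a CAG10-Cy3 probe in 30% formamide/2×SSC. After DAPI staining, imaging gave foci per nucleus.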

[2] = Homo sapiens, Fibroblast; DM1 patient fibroblasts, 48 h treatment, foci per nucleus; read-out: DM1 EC50, 48 h
[3] = F35T cells, 48 h treatment, foci per nucleus; read-out: FECD EC50, 48 h
[4] = Homo sapiens, Fibroblast; DM1 patient fibroblasts, foci per nucleus, 48 h treatment; read-out: DM1 EC50, 48 h
[5] = F35T cells, foci per nucleus, 48 h treatment; read-out: FECD EC50, 48 h

Structure (SMILES)	pEC50 [1, 2]	pEC50 (F35T cells; [3])	pEC50 [1, 4]	pEC50 (F35T cells; [5])
C=C(NCCC(=O)Nc1cc(C(=O)Nc2cn(C)c(C(=O)NCCC(=O)NCCC)n2)n(C)c1)c1nc(NC(=O)CCCNC(=O)c2cc(NC(=O)c3nc(NC(=O)CCNC(=O)c4cc(NC(=O)c5nccn5C)cn4C)cn3C)cn2CCCNC(=O)C(C)(C)C)cn1C [Compound B-400]	> 7.00	> 7.00	–	–
C=C(NCCC(=O)Nc1cc(C(=O)Nc2cn(C)c(C(=O)NCCC(=O)NCCC)n2)n(C)c1)c1nc(NC(=O)CCCNC(=O)c2cc(NC(=O)c3nc(NC(=O)CCNC(=O)c4cc(NC(=O)c5nccn5C)cn4C)cn3C)cn2CCCn2cc(COCCOCCOCCOC)nn2)cn1C [Compound B-401]	6.30 to 7.00	> 7.00	–	–
C=C(NCCC(=O)Nc1cc(C(=O)Nc2cn(C)c(C(=O)NCCC(=O)N3CCC(C#CC#CC4CCN(C(C)=O)CC4)CC3)n2)n(C)c1)c1nc(NC(=O)CCCNC(=O)c2cc(NC(=O)c3nc(NC(=O)CCNC(=O)c4cc(NC(=O)c5nccn5C)cn4C)cn3C)cn2CCCn2cc(COCCOCCOCCOC)nn2)cn1C [Compound B-402]	6.30 to 7.00	> 7.00	–	–
CCCNC(=O)CCNC(=O)c1nc(NC(=O)c2cc(NC(=O)CCNC(=O)c3nc(NC(=O)CCCNC(=O)c4cc(NC(=O)c5nc(NC(=O)CCNC(=O)c6cc(NC(=O)c7nccn7C)cn6C)cn5C)cn4CC(C)C)cn3C)cn2C)cn1C [Compound B-403]	> 7.00	> 7.00	–	–
CC(=O)N[C@H](CCNC(=O)c1cc(NC(=O)c2nc(NC(=O)CCNC(=O)c3cc(NC(=O)c4nccn4C)cn3C)cn2C)cn1C)C(=O)Nc1cn(C)c(C(=O)NCCC(=O)Nc2cc(C(=O)Nc3cn(C)c(C(=O)NCCC(=O)N4CCN(C)CC4)n3)n(C)c2)n1 [Compound B-404]	6.00 to 6.30	6.30 to 7.00	–	–
CN1CCN(C(=O)CCNC(=O)c2nc(NC(=O)c3cc(NC(=O)CCNC(=O)c4nc(NC(=O)[C@H](N)CCNC(=O)c5cc(NC(=O)c6nc(NC(=O)CCNC(=O)c7cc(NC(=O)c8nccn8C)cn7C)cn6C)cn5C)cn4C)cn3C)cn2C)CC1 [Compound B-405]	< 6.00	< 6.00	–	–
Cn1cc(NC(=O)c2nccn2C)cc1C(=O)NCCC(=O)Nc1cn(C)c(C(=O)Nc2cc(C(=O)NCC[C@@H](N)C(=O)Nc3cn(C)c(C(=O)NCCC(=O)Nc4cc(C(=O)Nc5cn(C)c(C(=O)CCCC(=O)N6CCCCC6)n5)n(C)c4)n3)n(C)c2)n1 [Compound B-406]	6.30 to 7.00	< 6.00	–	–
Cn1cc(NC(=O)c2nccn2C)cc1C(=O)NCCC(=O)Nc1cn(C)c(C(=O)Nc2cc(C(=O)NCC[C@@H](N)C(=O)Nc3cn(C)c(C(=O)NCCC(=O)Nc4cc(C(=O)Nc5cn(C)c(C(=O)NCCC(=O)N6CCC(C#CC#CC7CCNCC7)CC6)n5)n(C)c4)n3)n(C)c2)n1 [Compound B-407]	6.30 to 7.00	6.00 to 6.30	–	–
CCCCn1cc(NC(=O)c2nc(NC(=O)CCNC(=O)c3cc(NC(=O)c4nccn4C)cn3C)cn2C)cc1C(=O)NCC[C@@H](N)C(=O)Nc1cn(C)c(C(=O)NCCC(=O)Nc2cc(C(=O)Nc3cn(C)c(C(=O)NCCC(=O)N4CCN(C)CC4)n3)n(C)c2)n1 [Compound B-408]	6.30 to 7.00	6.30 to 7.00	–	–
CCCNC(=O)c1nc(NC(=O)c2cc(NC(=O)CCNC(=O)c3nc(NC(=O)[C@H](N)CCNC(=O)c4cc(NC(=O)c5nc(NC(=O)CCNC(=O)c6cc(NC(=O)c7nccn7C)cn6C)cn5C)cn4C)cn3C)cn2C)cn1C [Compound B-409]	> 7.00	> 7.00	–	–
CN(C)CCCCNC(=O)c1nc(NC(=O)c2cc(NC(=O)CCNC(=O)c3nc(NC(=O)[C@H](N)CCNC(=O)c4cc(NC(=O)c5nc(NC(=O)CCNC(=O)c6cc(NC(=O)c7nccn7C)cn6C)cn5C)cn4C)cn3C)cn2C)cn1C [Compound B-410]	–	–	6.00 to 6.30	< 6.00
COCCOCCOCCOCCOCCOCCOc1ccc(C#CCNCCCNC(=O)c2nc(NC(=O)c3cc(NC(=O)CCNC(=O)c4nc(NC(=O)CCCNC(=O)c5cc(NC(=O)c6nc(NC(=O)CCNC(=O)c7cc(NC(=O)c8nccn8C)cn7C)cn6C)cn5C)cn4C)cn3C)cn2C)cc1 [Compound B-412]	–	–	< 6.00	> 7.00
COCCOCCOCCOCCOCCOCCOc1ccccc1C#CCNCCCNC(=O)c1nc(NC(=O)c2cc(NC(=O)CCNC(=O)c3nc(NC(=O)CCCNC(=O)c4cc(NC(=O)c5nc(NC(=O)CCNC(=O)c6cc(NC(=O)c7nccn7C)cn6C)cn5C)cn4C)cn3C)cn2C)cn1C [Compound B-414]	–	–	6.30 to 7.00	> 7.00
CCCNC(=O)CCNC(=O)c1nc(NC(=O)c2cc(NC(=O)CCNC(=O)c3nc(NC(=O)C[C@@H](N)CNC(=O)c4cc(NC(=O)c5nc(NC(=O)CCNC(=O)c6cc(NC(=O)c7nccn7C)cn6C)cn5C)cn4C)cn3C)cn2C)cn1C [Compound B-415]	–	–	6.30 to 7.00	6.30 to 7.00
CN1CCN(C(=O)CCNC(=O)c2nc(NC(=O)c3cc(NC(=O)CCNC(=O)c4nc(NC(=O)C[C@@H](N)CNC(=O)c5cc(NC(=O)c6nc(NC(=O)CCNC(=O)c7cc(NC(=O)c8nccn8C)cn7C)cn6C)cn5C)cn4C)cn3C)cn2C)CC1 [Compound B-416]	–	–	6.00 to 6.30	< 6.00
CN1CCN(C(=O)CCNC(=O)c2nc(NC(=O)c3cc(NC(=O)CCNC(=O)c4nc(NC(=O)C[C@H](CNC(=O)c5cc(NC(=O)c6nc(NC(=O)CCNC(=O)c7cc(NC(=O)c8nccn8C)cn7C)cn6C)cn5C)NC(=O)c5ccccc5)cn4C)cn3C)cn2C)CC1 [Compound B-417]	–	–	6.30 to 7.00	> 7.00
Cn1cc(NC(=O)c2nccn2C)cc1C(=O)NCCC(=O)Nc1cn(C)c(C(=O)Nc2cc(C(=O)NC[C@H](N)CC(=O)Nc3cn(C)c(C(=O)NCCC(=O)Nc4cc(C(=O)Nc5cn(C)c(C(=O)NCCC(=O)N6CCCCC6)n5)n(C)c4)n3)n(C)c2)n1 [Compound B-418]	–	–	6.30 to 7.00	> 7.00
Cn1cc(NC(=O)c2nccn2C)cc1C(=O)NCCC(=O)Nc1cn(C)c(C(=O)Nc2cc(C(=O)NC[C@H](N)CC(=O)Nc3cn(C)c(C(=O)NCCC(=O)Nc4cc(C(=O)Nc5cn(C)c(C(=O)NCCC(=O)N6CCC(C#CC#CC7CCNCC7)CC6)n5)n(C)c4)n3)n(C)c2)n1 [Compound B-419]	–	–	6.30 to 7.00	> 7.00
CCCCn1cc(NC(=O)c2nc(NC(=O)CCNC(=O)c3cc(NC(=O)c4nccn4C)cn3C)cn2C)cc1C(=O)NC[C@H](N)CC(=O)Nc1cn(C)c(C(=O)NCCC(=O)Nc2cc(C(=O)Nc3cn(C)c(C(=O)NCCC(=O)N4CCN(C)CC4)n3)n(C)c2)n1 [Compound B-420]	–	–	6.30 to 7.00	6.00 to 6.30
CCCNC(=O)c1nc(NC(=O)c2cc(NC(=O)CCNC(=O)c3nc(NC(=O)C[C@@H](N)CNC(=O)c4cc(NC(=O)c5nc(NC(=O)CCNC(=O)c6cc(NC(=O)c7nccn7C)cn6C)cn5C)cn4C)cn3C)cn2C)cn1C [Compound B-421]	–	–	> 7.00	> 7.00
CN(C)CCCCNC(=O)c1nc(NC(=O)c2cc(NC(=O)CCNC(=O)c3nc(NC(=O)C[C@@H](N)CNC(=O)c4cc(NC(=O)c5nc(NC(=O)CCNC(=O)c6cc(NC(=O)c7nccn7C)cn6C)cn5C)cn4C)cn3C)cn2C)cn1C [Compound B-422]	–	–	< 6.00	< 6.00
CCCCn1cc(NC(=O)c2nc(NC(=O)CCNC(=O)c3cc(NC(=O)c4nccn4C)cn3C)cn2C)cc1C(=O)NC[C@H](N)CC(=O)Nc1cn(C)c(C(=O)NCCC(=O)Nc2cc(C(=O)Nc3cn(C)c(C(=O)NCCCCN(C)C)n3)n(C)c2)n1 [Compound B-423]	–	–	6.30 to 7.00	< 6.00
CN(C)CCCCNC(=O)c1nc(NC(=O)c2cc(NC(=O)CCNC(=O)c3nc(NC(=O)C[C@H](CNC(=O)c4cc(NC(=O)c5nc(NC(=O)CCNC(=O)c6cc(NC(=O)c7nccn7C)cn6C)cn5C)cn4C)NC(=O)c4ccccc4)cn3C)cn2C)cn1C [Compound B-424]	–	–	6.30 to 7.00	6.30 to 7.00
CCCCCCn1cc(NC(=O)c2nc(NC(=O)CCNC(=O)c3cc(NC(=O)c4nccn4C)cn3C)cn2C)cc1C(=O)NCCCC(=O)Nc1cn(C)c(C(=O)NCCC(=O)Nc2cc(C(=O)Nc3cn(C)c(C(=O)NCCC(=O)N4CCN(C)CC4)n3)n(C)c2)n1 [Compound B-425]	–	–	> 7.00	> 7.00
CCCCn1cc(NC(=O)c2nc(NC(=O)CCNC(=O)c3cc(NC(=O)c4nccn4C)cn3C)cn2C)cc1C(=O)NCCCC(=O)Nc1cn(C)c(C(=O)NCCC(=O)Nc2cc(C(=O)Nc3cn(C)c(C(=O)NCCC(=O)N4CCN(C)CC4)n3)n(C)c2)n1 [Compound B-426]	–	–	6.30 to 7.00	6.30 to 7.00
CN1CCN(C(=O)CCNC(=O)c2nc(NC(=O)c3cc(NC(=O)CCNC(=O)c4nc(NC(=O)CCCNC(=O)c5cc(NC(=O)c6nc(NC(=O)CCNC(=O)c7cc(NC(=O)c8nccn8C)cn7C)cn6C)cn5CCCCO)cn4C)cn3C)cn2C)CC1 [Compound B-427]	–	–	6.30 to 7.00	> 7.00
CN(C)CCCCn1cc(NC(=O)c2nc(NC(=O)CCNC(=O)c3cc(NC(=O)c4nccn4C)cn3C)cn2C)cc1C(=O)NCCCC(=O)Nc1cn(C)c(C(=O)NCCC(=O)Nc2cc(C(=O)Nc3cn(C)c(C(=O)NCCC(=O)N4CCCCC4)n3)n(C)c2)n1 [Compound B-428]	–	–	> 7.00	> 7.00
